From the supplement of paper PMC10307832

Experiments:
Assay in all cases: relative viability (nuclei count vs DMSO), 5 days (fraction); higher = more cells survive
CAL-12T = system: CAL-12T
Summary of the method: (§1)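 Lung cancer cell lines were pin-tool dosed in 1536-well plates on the day after seeding, with either a lone drug or a fixed anchor-drug dose plus five library-drug doses (not always all listed) in √10 steps. Nuclei were counted on 4× images after 5 days. Relative viability is the ratio of treated-well to vehicle-well nuclei counts, with each value a median of duplicate plates.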

COR-L 105 = system: COR-L 105
Summary of the method: as §1

H3255 = system: H3255
Summary of the method: as §1

HARA = system: HARA
Summary of the method: as §1

HCC-15 = system: HCC-15
Summary of the method: as §1

HCC-366 = system: HCC-366
Summary of the method: as §1

LC-2-ad = system: LC-2-ad
Summary of the method: as §1

LU99A = system: LU99A
Summary of the method: as §1

NCI-H1395 = system: NCI-H1395
Summary of the method: as §1

NCI-H1666 = system: NCI-H1666
Summary of the method: as §1

NCI-H1734 = system: NCI-H1734
Summary of the method: as §1

NCI-H1944 = system: NCI-H1944
Summary of the method: as §1

Work on `O=C(O)CCCCC(CCSCc1ccccc1)SCc1ccccc1` (stereo unspecified) [CPI-613] + N=C(N)NC(=N)NCCc1ccccc1 [Phenformin] (partner 250 µM) yielded a relative viability (CAL-12T; first compound 5 µM) of 0.538, a relative viability (CAL-12T; first compound 15.81 µM) of 0.546 and a relative viability (CAL-12T; first compound 50 µM) of 0.464. For the same compound, the relative viability (CAL-12T; first compound 158.11 µM) was 0.0459, the relative viability (CAL-12T; first compound 500 µM) was 0.0085 and the relative viability (COR-L 105; first compound 5 µM) was 0.428. The relative viability (COR-L 105; first compound 15.81 µM) was 0.405, the relative viability (COR-L 105; first compound 50 µM) was 0.443 and the relative viability (COR-L 105; first compound 158.11 µM) was 0.279. For the same compound, the relative viability (COR-L 105; first compound 500 µM) was 0.112, the relative viability (H3255; first compound 5 µM) was 0.351 and the relative viability (H3255; first compound 15.81 µM) was 0.299. For the same compound, the relative viability (H3255; first compound 50 µM) was 0.399, the relative viability (H3255; first compound 500 µM) was 0.299 and the relative viability (HARA; first compound 15.81 µM) was 0.394. The relative viability (HARA; first compound 50 µM) was 0.444, the relative viability (HARA; first compound 158.11 µM) was 0.267 and the relative viability (HARA; first compound 500 µM) was 0.0155. The relative viability (HCC-15; first compound 5 µM) was 0.435, the relative viability (HCC-15; first compound 15.81 µM) was 0.439 and the relative viability (HCC-15; first compound 50 µM) was 0.414. The relative viability (HCC-15; first compound 158.11 µM) was 0.178, the relative viability (HCC-15; first compound 500 µM) was 0.0244 and the relative viability (HCC-366; first compound 5 µM) was 0.554. The relative viability (HCC-366; first compound 15.81 µM) was 0.567, the relative viability (HCC-366; first compound 50 µM) was 0.651 and the relative viability (HCC-366; first compound 158.11 µM) was 0.239. For the same compound, the relative viability (HCC-366; first compound 500 µM) was 0.0045, the relative viability (LC-2-ad; first compound 5 µM) was 0.569 and the relative viability (LC-2-ad; first compound 15.81 µM) was 0.558. The relative viability (LC-2-ad; first compound 50 µM) was 0.567, the relative viability (LC-2-ad; first compound 158.11 µM) was 0.396 and the relative viability (LC-2-ad; first compound 500 µM) was 0.0712. It also gave a relative viability (LU99A; first compound 5 µM) of 0.801, a relative viability (LU99A; first compound 15.81 µM) of 0.793 and a relative viability (LU99A; first compound 50 µM) of 0.823. The relative viability (LU99A; first compound 158.11 µM) was 0.733, the relative viability (LU99A; first compound 500 µM) was 0.0986 and the relative viability (NCI-H1395; first compound 5 µM) was 0.419. For the same compound, the relative viability (NCI-H1395; first compound 15.81 µM) was 0.427, the relative viability (NCI-H1395; first compound 50 µM) was 0.433 and the relative viability (NCI-H1395; first compound 158.11 µM) was 0.457. The relative viability (NCI-H1395; first compound 500 µM) was 0.397, the relative viability (NCI-H1666; first compound 5 µM) was 0.56 and the relative viability (NCI-H1666; first compound 15.81 µM) was 0.539. For the same compound, the relative viability (NCI-H1666; first compound 50 µM) was 0.534, the relative viability (NCI-H1666; first compound 158.11 µM) was 0.26 and the relative viability (NCI-H1666; first compound 500 µM) was 0.251. The relative viability (NCI-H1734; first compound 5 µM) was 0.389, the relative viability (NCI-H1734; first compound 15.81 µM) was 0.322 and the relative viability (NCI-H1734; first compound 50 µM) was 0.348. For the same compound, the relative viability (NCI-H1734; first compound 158.11 µM) was 0.219, the relative viability (NCI-H1734; first compound 500 µM) was 0.0834 and the relative viability (NCI-H1944; first compound 5 µM) was 0.194. It also gave a relative viability (NCI-H1944; first compound 15.81 µM) of 0.185 and a relative viability (NCI-H1944; first compound 50 µM) of 0.187.
